The structures appear in SMILES notation. “And” between values parts separate entries of the source, which are not always exact repeats. Equal entries are not always repeated.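 A five-concentration, 48-hour dose response in 96-well plates underlies each endpoint, interpolated linearly between surrounding concentrations. GI50: concentration for 50% inhibition of growth. The concentration for full growth arrest is given as TGI.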 Some results are limits rather than exact numbers.

Common to all, as to assay: growth of human tumour cells (NCI), 48 h
The subject of experiment [1] is MALME-3M melanoma.
For experiment [2], the system named is K-562 leukemia.
Experiment [3] has as its system OVCAR-3 ovarian.
The test system of experiment [4] is IGROV1 ovarian.
Experiment [5] concerns SNB-75 CNS.
Experiment [6] concerns ACHN renal.
In experiment [7] the test system is HOP-62 NSCLC.
For experiment [8], the system named is HL-60(TB) leukemia.
In experiment [9] the test system is SN12C renal.
Experiment [10] concerns SF-268 CNS.

On to `CC1=NN(C(=O)CC(=O)Nc2ccccc2)C(=O)C1N=Nc1ccc(S(N)(=O)=O)cc1` (stereo not drawn), for which the TGI in experiment [1], in experiment [2], in experiment [3], in [4], in experiment [5] and in [6] was greater than 100 µM each time. Besides, the TGI in [7], in [8], in [9] and in experiment [10] was greater than 100 µM each time.

Turning to `CCCCCc1c(C)[nH]c(/C=C2\N=C(c3ccc[nH]3)C=C2Oc2ccc(OC)cc2)c1C`, the GI50 was 0.262 µM and 0.0744 µM in experiment [1]; 0.0719 µM and 0.0435 µM in experiment [2]; 0.156 µM and 0.0414 µM in [3]; 0.244 µM and 0.0925 µM in experiment [4]; 0.204 µM and 0.0328 µM in experiment [5]; 0.18 µM and 0.0482 µM in experiment [6]. The GI50 was 0.159 µM and 0.0768 µM in experiment [7]; 0.209 µM in experiment [8]; 0.2 µM and 0.0483 µM in [9]; 0.154 µM and 0.0526 µM in experiment [10]. Besides, the TGI in experiment [1] is 1.34 µM and 0.261 µM; in experiment [2] it was greater than 100 µM; in [3], 0.511 µM and 0.318 µM; in [4], 1.49 µM and 3.07 µM; in experiment [5], 0.559 µM and 0.316 µM; in experiment [7], 1.69 µM and 1.49 µM. Also, the TGI is 0.924 µM in experiment [8]; 1.54 µM and 0.418 µM in experiment [9]; 1.92 µM and 1.46 µM in [10].

Take `CC([C@H]1CCC2C3CCC4C(=O)C(NC=O)=CC[C@]4(C)C3CC[C@@]21C)N(C)C` (stereo partly drawn): the GI50 was 2.34 µM in [1]; 0.965 µM in [2]; 2.7 µM in experiment [3]; 2.29 µM in experiment [4]; 3.66 µM in experiment [5]; 4.86 µM in experiment [6]. Also, the GI50 was 2.01 µM in experiment [7], 1.86 µM in experiment [8], 2.92 µM in [9] and 2.17 µM in experiment [10]. Further, the TGI in experiment [1] was 5.96 µM; in experiment [2] it was greater than 23.8 µM; in experiment [3], 10.2 µM; in [5] it was 15.5 µM; in experiment [6], 17.2 µM; in [7] it was 4.56 µM. Moreover, the TGI in experiment [8] stood at 4.95 µM; in experiment [9] it was 14.9 µM; in experiment [10], 5.48 µM.

For the molecule `COc1ncn(C2C=C(CO)C(O)C2O)c(=O)n1` (stereo not drawn), the TGI in [1], in experiment [2], in [3], in experiment [4], in experiment [5] and in experiment [6] was greater than 100 µM in each case. The TGI in experiment [7], in experiment [8], in experiment [9] and in experiment [10] was greater than 100 µM in each case.

On to `CC(=O)OC1CC[C@@]2(C)C(CC(OC3OC(CO)C(O)C(O)C3O)[C@]3(C)C2CCC24CC23CC[C@H]4C(C)CC(O)[C@@H](O)C(C)(C)O)C1(C)C` (stereo partly drawn), for which the TGI in experiment [1] was 18.8 µM; in experiment [2], 43.4 µM; in [3], 48.7 µM; in experiment [4], 22.1 µM; in [5], 32 µM; in experiment [6], greater than 50 µM. Further, the TGI in experiment [7] is 40.1 µM; in [8] it was 24.9 µM; in [9] it was 30.7 µM; in experiment [10], greater than 50 µM.

Regarding `C[N+](C)(C)CC(=O)NC(=O)N/N=C\C(CC#N)CN(Cc1ccccc1)Cc1ccccc1` (stereo not drawn), the TGI in experiment [1], in experiment [2], in [3], in [4], in [5] and in experiment [6] was greater than 100 µM in each case. For the same molecule, the TGI in experiment [7], in [8], in experiment [9] and in experiment [10] was greater than 100 µM throughout.

With `O=C(CCCCCCCCC(=O)OCCCn1cc(C(=O)NC(=O)OCc2ccccc2)c(=O)[nH]c1=O)OCCCn1cc(C(=O)NC(=O)OCc2ccccc2)c(=O)[nH]c1=O`, the TGI in [1], in [2], in [3], in experiment [4], in experiment [5] and in experiment [6] was greater than 100 µM in each case. Further, the TGI in experiment [7], in experiment [8], in [9] and in experiment [10] was greater than 100 µM in each case.

On to `COc1cccc(-n2cnc3c(N/N=C/c4ccncc4)ncnc32)c1`, for which the GI50 is 10.2 µM in experiment [1]; 10.9 µM in experiment [2]; greater than 20.8 µM in experiment [3]; 8.65 µM in [4]; 7.45 µM in experiment [5]; 9.06 µM in [6]. Further, the GI50 in experiment [7] is greater than 25 µM; in [8], greater than 25 µM; in experiment [9] it was 13.2 µM; in experiment [10] it was 24.5 µM. In addition, the TGI in [1], in experiment [2], in experiment [3], in experiment [4], in [5] and in [6] was greater than 25 µM throughout. The TGI in experiment [7], in experiment [8], in experiment [9] and in experiment [10] was greater than 25 µM in each case.

On to `COc1ccc(/C(C#N)=C/c2nc3c(N4CCOCC4)nc(Cl)nc3n2C)cc1OC`, for which the GI50 is less than 0.0152 µM in experiment [1]; less than 0.01 µM in [2]; less than 0.01 µM in [3]; less than 0.01 µM in experiment [4]; less than 0.01 µM in [5]; less than 0.01 µM in [6]. Also, the GI50 is less than 0.01 µM in experiment [7], less than 0.01 µM in experiment [8], less than 0.01 µM in experiment [9] and 0.0173 µM in experiment [10]. Moreover, the TGI was 2.01 µM in experiment [1]; 11.4 µM in experiment [2]; less than 0.01 µM in [3]; 1.27 µM in experiment [4]; less than 0.01 µM in [5]; 1.25 µM in experiment [6]. For the same molecule, the TGI was 2.53 µM in [7], less than 0.0112 µM in [8], 1.48 µM in experiment [9] and 2.23 µM in [10].

These data come from PubChem BioAssay (NCI).
